Earlier results, collected in US6630467B2, “Pyridone-fused azabicyclic- or cytisine derivatives, their preparation and their use in addiction therapy” (Pfizer Inc., priority 1996, dated 2003).

Settings: in vivo

In the case of `O=c1cccc2n1CC1CNCC2C1` (centres unmarked) [cytisine, 1,2,3,4,5,6-hexahydro-1,5-methano-pyrido[1,2-a][1,5]diazocin-8-one], the “penetration of the brain barrier” value is given as “inability to penetrate the brain barrier” and the potency is given as “not high”.
